From patent US20260364184A1, “COMPOUND BASED ON OXOISOINDOLINYL-SUBSTITUTED TETRAHYDROPYRIMIDINE-DIONE AND USE THEREOF” (GLUETACS THERAPEUTICS (SHANGHAI) CO., LTD., priority 2023, published 2026)

Legend:
Assay type in all cases: cell-based
[1] = test system: Human myeloid monocytic leukemia cell line (MV-4-11); assay: Inhibition of MV-4-11 cell proliferation (CellTiter luminescent viability); settings: Homo sapiens, MV4-11, Table IA3, IRAK4 inhibitor-based, 96 hours; for inhibition at 0.01 µM: MV-4-11, 10 nM, read-out: Inhibition Rate at 10 nM (%); for inhibition at 0.5 µM: MV-4-11, 500 nM, read-out: Inhibition Rate at 500 nM (%)
Description: (§1) The tumor cells used herein were cultured in a cell culture medium listed in table 3 at 37 °C in an incubator with 5% CO2. Prior to experimentation, all cell lines used were correctly identified by STR profiling, and tested negative for mycoplasma contamination using a mycoplasma detection kit through routine screenings.
(§2) The IC50 values of the compounds of the present disclosure (including the compounds in Table 1, Table 2, and Examples 1-468) were determined using the CellTiter-Meiluncell Luminescent Cell Viability Assay Kit from Dalian Meilun Biotech Co., Ltd. The detailed procedure is as follows: Tumor cells were seeded in 96-well cell culture plates at the densities specified in Table 4. On the following day, the test compounds of the present disclosure were subjected to serial dilution. The dilution can be performed according to one of the following two methods: • (1) The first dilution method: The test compounds of the present disclosure (including the compounds in Table 1, Table 2, and Examples 1-468) were subjected to 5-fold serial dilutions starting from a highest concentration of 2000 μM, resulting in a total of 9 concentrations from high to low (2000, 400, 80, 16, 3.2, 0.64, 0.128, 0.0256, 0.00512 μM). Subsequently, 0.5 μL of the test compound dilution was transferred into the 96-well plate containing the cells, with each well containing 100 μL of cell culture medium. […] Into the 96-well plate, the diluted test compounds and corresponding detection reagents were added, resulting in final test compound concentrations of 500 nM and 10 nM, respectively. The experimental procedure is described below using the diluted 2 μM test compound as an example.
(§3) 0.5 μL of the aforementioned diluted compound of the present disclosure (including the compounds in Table 1, Table 2, and Examples 1-468) was added to the seeded cells in 100 μL of medium, yielding a final test compound concentration of 10 nM. After the cells were treated with the compounds of the present disclosure for a specified period, the cell viability assay reagent was added to the culture medium according to the kit's instructions to determine cell viability. […] All controls were treated using the same procedure as the compounds of the present disclosure. The growth inhibition curves for the compounds of the present disclosure were plotted using Prism GraphPad software, and the IC50 values were calculated therefrom.

IRAK4 = target: T1, IRAK4 (Homo sapiens, UniProt Q9NWZ3); assay: Western blot degradation of IRAK4; settings: hPBMC Cell; 24 hours
T1 construct: expression of target proteins in cells; endogenous in cells
T1 sequence (Q9NWZ3 1-460): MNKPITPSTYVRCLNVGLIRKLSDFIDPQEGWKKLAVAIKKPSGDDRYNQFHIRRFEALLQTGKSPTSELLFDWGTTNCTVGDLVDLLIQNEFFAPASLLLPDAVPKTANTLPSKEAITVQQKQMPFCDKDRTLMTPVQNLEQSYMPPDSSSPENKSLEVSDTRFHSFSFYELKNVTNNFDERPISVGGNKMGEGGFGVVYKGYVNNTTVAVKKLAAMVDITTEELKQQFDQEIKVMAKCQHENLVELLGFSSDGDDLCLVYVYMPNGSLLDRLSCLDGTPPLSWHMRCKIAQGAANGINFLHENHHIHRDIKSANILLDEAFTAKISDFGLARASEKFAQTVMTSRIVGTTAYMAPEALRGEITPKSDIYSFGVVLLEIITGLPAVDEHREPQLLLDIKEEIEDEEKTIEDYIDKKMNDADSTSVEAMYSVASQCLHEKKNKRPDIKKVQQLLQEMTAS
In short: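 Compound-treated cells harvested; lysates denatured 5 min at 95 °C, run on SDS-PAGE, blotted to NC membrane, blocked 1 h RT, probed with antibodies. Densitometry vs DMSO → DC50; target normalised to internal control → % remaining, degradation = 1 − remaining.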

[2] = test system: Human Multiple myeloma cell line (MM.1S); assay: Inhibition of MM.1S cell proliferation (CellTiter luminescent viability); settings: Table IA1, IRAK4 inhibitor-based, 96 hours, read-out: Inhibitory activity (IC50, nM) on tumor cell proliferation, MM.1S
Description: as §1, §2, §3

[3] = test system: Human Acute T Lymphoblastic Leukemia Cells (Molt-4); assay: Inhibition of Molt-4 cell proliferation (CellTiter luminescent viability); settings: Homo sapiens, MOLT-4, 96 h, Table IA2, IRAK4 inhibitor-based, 96 hours; for inhibition at 0.01 µM: Molt-4, 10 nM, read-out: Inhibition Rate at 10 nM (%); for inhibition at 0.5 µM: Molt-4, 500 nM, read-out: Inhibition Rate at 500 nM (%)
Description: as §1, §2, §3

Row | Degradation of substrate protein IRAK4 (substrate protein remaining %) (IRAK4) | IC50 [2] [nM] | Structure (SMILES) | inhibition at 0.01 µM [1] [%] | inhibition at 0.5 µM [1] [%] | inhibition at 0.01 µM [3] [%] | inhibition at 0.5 µM [3] [%]
1 | A (0%≤substrate protein remaining %≤80%) | – | COc1cc2nn(C3CCN(CC4CCN(c5cccc6c5C(=O)N(N5CCC(=O)NC5=O)C6=O)CC4)CC3)cc2cc1NC(=O)c1cccc(C(F)(F)F)n1 [GT-05817, N-(2-(1-((1-(2-(2,4-dioxotetrahydropyrimidin-1(2H)-yl)-1,3-dioxoisoindolin-4-yl)piperidin-4-yl)methyl)piperidin-4-yl)-6-methoxy-2H-indazol-5-yl)-6-(trifluoromethyl) picolinamide] | -5 to 0 | 50 to 60 | – | –
2 | A (0%≤substrate protein remaining %≤80%) | 500 to 1000 | O=C1CCN(N2C(=O)c3ccc(N4CCC(CN5CCC(n6cc(NC(=O)c7coc(-c8ccnc(NCC9CC9)c8)n7)c(C(F)F)n6)CC5)CC4)cc3C2=O)C(=O)N1 [GT-04953, 2-(2-((cyclopropylmethyl)amino)pyridin-4-yl)-N-(3-(difluoromethyl)-1-(1-((1-(2-(2,4-dioxotetrahydropyrimidin-1(2H)-yl)-1,3-dioxoisoindolin-5-yl)piperidin-4-yl)methyl)piperidin-4-yl)-1H-pyrazol-4-yl) oxazole-4-carboxamide] | – | – | – | –
3 | A (0%≤substrate protein remaining %≤80%) | – | COc1cc2nn([C@H]3CC[C@H](CN4C[C@@H]5C[C@H]4CN5c4ccc5c(c4)C(=O)N(N4CCC(=O)NC4=O)C5=O)CC3)cc2cc1NC(=O)c1cccc(C(F)(F)F)n1 [GT-08648, N-(2-((1S,4r)-4-(((1S,4S)-5-(2-(2,4-dioxotetrahydropyrimidin-1(2H)-yl)-1,3-dioxoisoindolin-5-yl)-2,5-diazabicyclo[2.2.1]heptan-2-yl)methyl)cyclohexyl)-6-methoxy-2H-indazol-5-yl)-6-(trifluoromethyl) picolinamide] | – | – | 15 to 20 | 15 to 20
4 | A (0%≤substrate protein remaining %≤80%) | – | COc1cc2nn([C@H]3CC[C@H](CN4CC5CCC(C4)N5c4ccc5c(c4)C(=O)N(N4CCC(=O)NC4=O)C5=O)CC3)cc2cc1NC(=O)c1cccc(C(F)(F)F)n1 [GT-08652, N-(2-((1r,4r)-4-((8-(2-(2,4-dioxotetrahydropyrimidin-1(2H)-yl)-1,3-dioxoisoindolin-5-yl)-3,8-diazabicyclo[3.2.1]octan-3-yl)methyl)cyclohexyl)-6-methoxy-2H-indazol-5-yl)-6-(trifluoromethyl) picolinamide] | – | – | 15 to 20 | 15 to 20
5 | A (0%≤substrate protein remaining %≤80%) | – | O=C1CCN(N2C(=O)c3cccc(N4CCC(CN5CCN(c6ccc7c(c6)nc(NC(=O)c6cccc(C(F)(F)F)c6)n7[C@H]6CC[C@@H](CO)CC6)CC5)CC4)c3C2=O)C(=O)N1 [GT-05325, N-(5-(4-((1-(2-(2,4-dioxotetrahydropyrimidin-1(2H)-yl)-1,3-dioxoisoindolin-4-yl)piperidin-4-yl)methyl)piperazin-1-yl)-1-((1s,4s)-4-(hydroxymethyl)cyclohexyl)-1H-benzo[d]imidazol-2-yl)-3-(trifluoromethyl)benzamide] | -15 to -10 | 60 to 80 | – | –
6 | A (0%≤substrate protein remaining %≤80%) | – | COc1cc2nn([C@H]3CC[C@H](CN4CCN(c5cc6c(cc5F)C(=O)N(N5CCC(=O)NC5=O)C6=O)CC4)CC3)cc2cc1NC(=O)c1cccc(C(F)(F)F)n1 [GT-08651, N-(2-((1r,4r)-4-((4-(2-(2,4-dioxotetrahydropyrimidin-1(2H)-yl)-6-fluoro-1,3-dioxoisoindolin-5-yl)piperazin-1-yl)methyl)cyclohexyl)-6-methoxy-2H-indazol-5-yl)-6-(trifluoromethyl) picolinamide] | – | – | 15 to 20 | 10 to 15
7 | A (0%≤substrate protein remaining %≤80%) | – | O=C1CCN(N2C(=O)c3ccc(N4C[C@H]5C[C@@H]4CN5C[C@H]4CC[C@H](n5cc(NC(=O)c6cnn7ccc(N8C[C@H]9C[C@@H]8CO9)nc67)c(C(F)F)n5)CC4)cc3C2=O)C(=O)N1 [GT-05238, 5-((1R,4R)-2-oxa-5-azabicyclo[2.2.1]heptan-5-yl)-N-(3-(difluoromethyl)-1-((1R,4R)-4-(((1R,4R)-5-(2-(2,4-dioxotetrahydropyrimidin-1(2H)-yl)-1,3-dioxoisoindolin-5-yl)-2,5-diazabicyclo[2.2.1]heptan-2-yl)methyl)cyclohexyl)-1H-pyrazol-4-yl)pyrazolo[1,5-a]pyrimidine-3-carboxamide] | 20 to 36 | 60 to 80 | – | –
8 | A (0%≤substrate protein remaining %≤80%) | – | COc1cc2nn([C@H]3CC[C@H](CN4CCN(c5cc6c(cc5F)C(=O)N(N5CCC(=O)NC5=O)C6=O)CC4)CC3)cc2cc1NC(=O)c1cccc(C(F)(F)F)c1 [GT-08664, N-(2-((1r,4r)-4-((4-(2-(2,4-dioxotetrahydropyrimidin-1(2H)-yl)-6-fluoro-1,3-dioxoisoindolin-5-yl)piperazin-1-yl)methyl)cyclohexyl)-6-methoxy-2H-indazol-5-yl)-3-(trifluoromethyl)benzamide] | – | – | 20 to 40 | 15 to 20
9 | A (0%≤substrate protein remaining %≤80%) | – | COc1cc2nn([C@H]3CC[C@H](CN4C[C@H]5C[C@@H]4CN5c4ccc5c(c4)C(=O)N(N4CCC(=O)NC4=O)C5=O)CC3)cc2cc1NC(=O)c1cccc(C(F)(F)F)n1 [GT-08650, N-(2-((1R,4r)-4-(((1R,4R)-5-(2-(2,4-dioxotetrahydropyrimidin-1(2H)-yl)-1,3-dioxoisoindolin-5-yl)-2,5-diazabicyclo[2.2.1]heptan-2-yl)methyl)cyclohexyl)-6-methoxy-2H-indazol-5-yl)-6-(trifluoromethyl) picolinamide] | – | – | 20 to 40 | 15 to 20
10 | A (0%≤substrate protein remaining %≤80%) | – | O=C1CCN(N2C(=O)c3ccc(N4CCC(N5CCC(CN6CCC(n7cc(NC(=O)c8coc(-c9ccnc(NCC(F)(F)F)c9)n8)c(C(F)F)n7)CC6)CC5)CC4)cc3C2=O)C(=O)N1 [GT-05144, N-(3-(difluoromethyl)-1-(1-((1′-(2-(2,4-dioxotetrahydropyrimidin-1(2H)-yl)-1,3-dioxoisoindolin-5-yl)-[1,4′-bipiperidin]-4-yl)methyl)piperidin-4-yl)-1H-pyrazol-4-yl)-2-(2-((2,2,2-trifluoroethyl)amino)pyridin-4-yl) oxazole-4-carboxamide] | – | – | – | –
